What was measured:
human 5-HT1A receptor [1] = molecular target: T1, human 5-HT1A receptor (Homo sapiens (Human), UniProt P08908); test: Test 2: agonist activity for human 5-HT1A receptor ([35S]GTPγS binding); format: biochemical; conditions: for EC50: [35S]GTPγS binding, concentration at which half the activity of Emax was obtained; for Emax at 10 µM: agonist activity in the presence of 10 μM of compound, relative to 100 μmol/L 5-HT
Outline: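 [35S]GTPγS binding read-out: after 60 min at room temperature with test compound in GDP buffer, human 5-HT1A receptor CHO membranes were vacuum-filtered and retained radioactivity scintillation-counted. Agonist activity calculated by formula.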

human 5-HT1A receptor [2] = molecular target: T1, human 5-HT1A receptor; test: Test 1: binding activity for human 5-HT1A receptor ([3H]8-OH-DPAT, CHO cell membrane fraction)
Outline: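 Membranes incubated with [3H]8-OH-DPAT and compound for 60 min at room temperature, then filtered on polyethylenimine-coated glass-fibre plates and counted by liquid scintillation. IC50 from Hill analysis; Ki = IC50/(1+S/Kd), Kd from saturation binding on the same membranes.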

human 5-HT2A receptor [3] = molecular target: T2, human 5-HT2A receptor (Homo sapiens (Human), UniProt P28223); test: Test 1: binding activity for human 5-HT2A receptor ([3H]Ketanserin, CHO cell membrane fraction)
T2 sequence (P28223 whole entry): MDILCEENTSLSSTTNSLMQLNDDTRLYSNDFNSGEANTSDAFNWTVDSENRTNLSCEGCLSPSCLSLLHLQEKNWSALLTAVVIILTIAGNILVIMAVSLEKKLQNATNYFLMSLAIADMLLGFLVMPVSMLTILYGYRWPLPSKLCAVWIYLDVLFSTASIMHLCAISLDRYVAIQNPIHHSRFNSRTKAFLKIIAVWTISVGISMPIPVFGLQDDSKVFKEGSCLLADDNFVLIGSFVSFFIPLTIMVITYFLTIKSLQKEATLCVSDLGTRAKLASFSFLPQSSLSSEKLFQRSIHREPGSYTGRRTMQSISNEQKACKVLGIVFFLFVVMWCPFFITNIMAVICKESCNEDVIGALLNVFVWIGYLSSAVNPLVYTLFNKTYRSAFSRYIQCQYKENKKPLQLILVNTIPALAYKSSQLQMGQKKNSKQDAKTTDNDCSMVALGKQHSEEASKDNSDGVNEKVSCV
Protocol: Test 1: Evaluation of Binding Activity for Human 5-HT1A Receptor, Human 5-HT2A Receptor, and Human D2 Receptor
Binding affinity of the present compound for human 5-HT1A receptor, human 5-HT2A receptor, and human D2 receptor was measured by the following procedures.
Each mixture was incubated at room temperature for 60 minutes. Then, the mixture was added quickly on a glassfiber filter plate (Multiscreen FB, Millipore, Inc.) coated with 0.3% aqueous polyethylenimine, and vacuum-filtered. Radioactivity remaining on the filter was measured with a liquid scintillation counter (PerkinElmer, Inc.). Binding inhibition rate was calculated from the following formula.
Ki of each compound was calculated from the following formula. Binding inhibition constant (Ki)=IC50/(1+S/Kd) wherein S is concentration of ligand; Kd is a binding dissociation constant of ligand to membrane, which is calculated from a saturated binding experiment conducted with the same cell membrane. A small Ki value means strong binding ability to a receptor.

human 5-HT2A receptor [4] = molecular target: T2, human 5-HT2A receptor; test: Test 3: antagonist activity for human 5-HT2A receptor (aequorin luminescence, CHO-K1 cells); format: cell-based; conditions: CHO-K1 cells, 1 nmol/L 5-HT
Protocol: Test 3: Evaluation of Antagonist Activity for Human 5-HT2A Receptor
Aequorin, Gα16 protein, and each receptor were transiently expressed in CHO-K1 cells (Chinese hamster ovary). […] Each compound dissolved in DMSO was added thereto, and changes in luminescence were measured by FDSS/μCELL functional drug screening system (Hamamatsu Photonics K.K.). Antagonist activity was calculated from the following formula. Antagonist activity (%)=100×{(Luminescence of well in the presence of 1 nmol/L 5-HT−Luminescence of well containing solvent)−(Luminescence of well in the presence of test compound and 1 nmol/L 5-HT−Luminescence of well containing solvent)}/(Luminescence of well in the presence of 1 nmol/L 5-HT−Luminescence of well containing solvent)

hERG channel = hERG channel (Homo sapiens (Human), UniProt Q12809); test: Test 6-1: inhibitory activity for hERG channel (auto patch clamp, Qpatch); format: cell-based; conditions: for IC50: whole cell auto patch clamp, hERG-CHO cells, read-out: hERG inhibition IC50; for hERG inhibition IC50 (nmol/L)/5-HT1A Ki (nmol/L): ratio of hERG IC50 to 5-HT1A Ki; for hERG inhibition IC50 (nmol/L)/5-HT2A Ki (nmol/L): ratio of hERG IC50 to 5-HT2A Ki
Sequence of hERG channel (Q12809 whole entry): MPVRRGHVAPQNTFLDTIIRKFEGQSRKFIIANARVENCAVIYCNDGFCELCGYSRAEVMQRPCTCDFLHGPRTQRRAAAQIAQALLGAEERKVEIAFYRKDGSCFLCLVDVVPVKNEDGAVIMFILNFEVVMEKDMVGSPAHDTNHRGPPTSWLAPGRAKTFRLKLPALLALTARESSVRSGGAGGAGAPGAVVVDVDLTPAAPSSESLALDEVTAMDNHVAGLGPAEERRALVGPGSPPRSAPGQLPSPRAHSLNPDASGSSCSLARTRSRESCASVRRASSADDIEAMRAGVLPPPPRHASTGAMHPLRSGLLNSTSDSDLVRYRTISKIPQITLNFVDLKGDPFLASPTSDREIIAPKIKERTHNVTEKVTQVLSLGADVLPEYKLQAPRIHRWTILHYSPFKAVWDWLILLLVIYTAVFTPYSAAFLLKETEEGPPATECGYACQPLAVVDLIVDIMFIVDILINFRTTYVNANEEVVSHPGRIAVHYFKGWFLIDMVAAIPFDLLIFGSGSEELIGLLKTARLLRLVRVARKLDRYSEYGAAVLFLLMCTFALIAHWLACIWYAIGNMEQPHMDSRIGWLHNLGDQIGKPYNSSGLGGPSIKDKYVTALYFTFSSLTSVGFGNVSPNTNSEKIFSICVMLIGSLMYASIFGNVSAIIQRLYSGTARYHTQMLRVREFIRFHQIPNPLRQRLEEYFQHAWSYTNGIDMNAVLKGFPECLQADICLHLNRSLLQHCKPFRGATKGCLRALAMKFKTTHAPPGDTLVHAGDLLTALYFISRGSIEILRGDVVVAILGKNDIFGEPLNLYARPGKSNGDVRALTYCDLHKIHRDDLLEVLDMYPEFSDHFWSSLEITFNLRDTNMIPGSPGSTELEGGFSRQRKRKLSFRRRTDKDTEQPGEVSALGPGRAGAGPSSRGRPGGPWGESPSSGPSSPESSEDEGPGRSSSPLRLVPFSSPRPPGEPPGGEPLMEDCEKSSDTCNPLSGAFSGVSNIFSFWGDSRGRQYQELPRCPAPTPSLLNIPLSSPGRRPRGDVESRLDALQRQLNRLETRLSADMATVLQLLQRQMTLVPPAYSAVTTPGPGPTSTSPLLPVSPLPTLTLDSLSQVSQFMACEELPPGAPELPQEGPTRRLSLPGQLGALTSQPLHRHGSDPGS
Outline: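 Whole-cell patch clamp on an automated system using CHO cells stably expressing human hERG (IKr); 15 s pulse interval. Four increasing compound concentrations applied cumulatively; mean peak tail current from last 3 stimulations per concentration used. IC50 from inhibition versus pre-compound current, fitted by Hill equation.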

[5] = Test 4: metabolic stability test in human hepatic microsome; format: in vitro ADME; conditions: 0.1 mg/mL microsome, 0.1 μmol/L compound, 37° C., 30 minutes
Outline: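 LC-MS quantified remaining parent after 30 min, 37° C, in pH 7.4 25 mmol/L phosphate containing 0.1 mg/mL human hepatic microsomes, 3.2 mmol/L NADPH and 0.1 μmol/L test compound. Value given as −LN(residual ratio)/30/0.1, mL/min/mg protein.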

human D2 receptor = human D2 receptor (Homo sapiens (Human), UniProt P14416); test: Test 1: binding activity for human D2 receptor ([3H]Spiperone, CHO cell membrane fraction); conditions: for Ki: human D2 receptor, [3H]Spiperone; for D2 Ki/5-HT1A Ki / D2 Ki/5-HT2A Ki: selectivity ratio
Sequence of human D2 receptor (P14416 whole entry): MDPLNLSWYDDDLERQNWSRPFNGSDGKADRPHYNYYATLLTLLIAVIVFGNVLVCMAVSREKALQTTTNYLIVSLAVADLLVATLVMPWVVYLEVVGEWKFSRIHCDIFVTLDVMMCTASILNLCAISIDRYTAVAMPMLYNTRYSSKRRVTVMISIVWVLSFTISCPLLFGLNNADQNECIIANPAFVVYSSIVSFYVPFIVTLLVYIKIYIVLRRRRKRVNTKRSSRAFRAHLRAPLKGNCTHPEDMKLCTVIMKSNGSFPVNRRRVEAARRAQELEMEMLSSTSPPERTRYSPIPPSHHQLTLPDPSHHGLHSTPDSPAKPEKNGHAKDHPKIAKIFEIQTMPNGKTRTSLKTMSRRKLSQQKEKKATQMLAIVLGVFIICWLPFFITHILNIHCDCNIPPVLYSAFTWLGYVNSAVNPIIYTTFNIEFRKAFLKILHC
Outline: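 Compound displacement of [3H]ketanserin at 5-HT2A or [3H]spiperone at D2 was measured in CHO membrane fractions after 60 min at room temperature, with filtration and scintillation counting. IC50 was converted to Ki by Cheng–Prusoff using ligand concentration and Kd from saturation binding.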

T1 sequence (P08908 whole entry): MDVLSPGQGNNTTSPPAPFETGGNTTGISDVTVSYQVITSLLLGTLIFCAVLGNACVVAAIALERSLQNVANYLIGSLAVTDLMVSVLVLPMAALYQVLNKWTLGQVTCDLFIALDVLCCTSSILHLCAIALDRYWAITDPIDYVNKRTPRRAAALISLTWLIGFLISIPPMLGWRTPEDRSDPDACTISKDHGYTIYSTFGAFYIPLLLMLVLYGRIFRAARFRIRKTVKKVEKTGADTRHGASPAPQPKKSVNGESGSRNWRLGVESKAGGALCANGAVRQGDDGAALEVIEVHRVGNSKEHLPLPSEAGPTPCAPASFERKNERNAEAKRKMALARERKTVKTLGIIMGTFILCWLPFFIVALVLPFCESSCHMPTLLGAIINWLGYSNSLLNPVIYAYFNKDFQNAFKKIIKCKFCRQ

D2 Ki/5-HT1A Ki (human D2 receptor)	D2 Ki/5-HT2A Ki (human D2 receptor)	SMILES	EC50 (human 5-HT1A receptor [1]) [nM]	Emax at 10 µM (human 5-HT1A receptor [1]) [%]	Ki (human 5-HT1A receptor [2]) [nM]	Ki (human 5-HT2A receptor [3]) [nM]	IC50 (human 5-HT2A receptor [4]) [nM]	IC50 (hERG channel) [µM]	Metabolic stability in human hepatic microsome [5] [mL/min/mg protein]	Ki (human D2 receptor) [nM]	hERG inhibition IC50 (nmol/L)/5-HT1A Ki (nmol/L) (hERG channel)	hERG inhibition IC50 (nmol/L)/5-HT2A Ki (nmol/L) (hERG channel)	IC50 (human 5-HT2A receptor [4]; aequorin luminescence) [nM]
–	–	O=C1c2ncccc2CCN1CCN1CCN(c2noc3ccccc23)CC1 [Example 1, 7-{2-[4-(1,2-Benzoisoxazol-3-yl)piperazin-1-yl]ethyl}-6,7-dihydro-1,7-naphthyridin-8(5H)-one]	94.7	50	21.5	49	44.6	> 10	<0.01	–	–	–	–
–	–	O=C1c2cnccc2CCN1CCN1CCN(c2nsc3ccccc23)CC1 [Example 18]	18	90	10.6	3.7	36	5.9	0.124	–	–	–	–
–	–	O=C1c2ncccc2CCC1CCN1CCC(c2noc3ccccc23)CC1 (centres unmarked) [Example 24]	63.2	31	13.2	3.55	33	0.4	0.018	–	–	–	–
–	–	Cn1ncc2c1CCC(CCN1CCC(c3noc4ccccc34)CC1)C2=O (centres unmarked) [Example 28]	7.59	94	13.8	1.4	9.8	1.4	0.017	–	–	–	–
–	–	Cc1noc2c1C(=O)N(CCN1CCN(c3noc4ccccc34)CC1)CC2 [Example 32, 5-{2-[4-(1,2-Benzoisoxazol-3-yl)piperazin-1-yl]ethyl}-3-methyl-6,7-dihydro[1,2]oxazolo[4,5-c]pyridin-4(5H)-one]	644	39	124	60	95	5.5	<0.01	–	–	–	–
391	139	Cc1nc2c(o1)C(=O)N(CCN1CCC(c3noc4ccccc34)CC1)CC2 [Example 35, 5-{2-[4-(1,2-Benzoisoxazol-3-yl)piperidin-1-yl]ethyl}-2-methyl-6,7-dihydro[1,3]oxazolo[5,4-c]pyridin-4(5H)-one]	72	68	3.3	9.3	74	1.5	<0.01	1290	453	161	–
–	–	Cc1noc2c1C(=O)N(CCN1CCC(c3noc4ccccc34)CC1)CCC2 [Example 38]	395	56	13.5	4.44	24	0.5	0.136	–	–	–	–
–	–	Cn1ncc2c1C(=O)N(CCN1CCN(c3nsc4ccccc34)CC1)CCC2 [Example 47]	92.2	65	16.9	17.9	4.96	4	0.418	–	–	–	–
–	–	Cn1cnc2c1C(=O)N(CCN1CCN(c3nsc4ccccc34)CC1)CC2 [Example 56]	66.6	58	78	0.11	6	7.6	0.195	–	–	–	–
9	14	Cn1ncc2c1C(=O)N(CCN1CCC(c3noc4ccccc34)CC1)CC2 [Example 96, 6-{2-[4-(1,2-Benzoisoxazol-3-yl)piperidin-1-yl]ethyl}-1-methyl-1,4,5,6-tetrahydro-7H-pyrazolo[3,4-c]pyridin-7-one]	65.5	33	11.8	7.25	20	1.2	0.019	103	97	159	–
–	–	Cc1cc2ccn(CCN3CCN(c4noc5ccccc45)CC3)c(=O)c2cn1 [Example 113, 2-{2-[4-(1,2-Benzoisoxazol-3-yl)piperazin-1-yl]ethyl}-6-methyl-2,7-naphthyridin-1(2H)-one]	16	67	14.4	3.7	8.63	7	0.079	–	–	–	–
–	–	O=c1c2cnccc2ccn1CCN1CCN(c2noc3ccccc23)CC1 [Example 116]	882	60	128	26	–	5.3	0.1	> 10000	–	–	49.7
–	–	O=C1c2cccnc2CCN1CCN1CCC(c2noc3cc(F)ccc23)CC1 [Example 121]	–	–	60.9	105	–	< 0.3	<0.05	–	–	–	57.4
–	–	Cn1ncc2c1CCN(CCN1CCN(c3noc4ccccc34)CC1)C2=O [Example 131]	405	48	279	12	–	> 3	<0.05	> 10000	–	–	9.53
–	–	CC1(CCN2CCN(c3noc4ccccc34)CC2)CCc2cccnc2C1=O (centres unmarked) [Example 145]	55.1	58	38.1	1.15	–	> 3	0.302	–	–	–	19
48.3	363.5	CC(C)c1ncc2c(n1)CCN(CCN1CCN(c3nsc4ccccc34)CC1)C2=O [Example 180]	1260	37	32.2	4.28	–	–	0.469	1560	–	–	72.7

SMILES	D2 Ki/5-HT1A Ki (human D2 receptor)	D2 Ki/5-HT2A Ki (human D2 receptor)	EC50 (human 5-HT1A receptor [1]) [nM]	Emax at 10 µM (human 5-HT1A receptor [1]) [%]	Ki (human 5-HT1A receptor [2]) [nM]	Ki (human 5-HT2A receptor [3]) [nM]	IC50 (human 5-HT2A receptor [4]) [nM]	IC50 (hERG channel) [µM]	Metabolic stability in human hepatic microsome [5] [mL/min/mg protein]	Ki (human D2 receptor) [nM]	hERG inhibition IC50 (nmol/L)/5-HT1A Ki (nmol/L) (hERG channel)	hERG inhibition IC50 (nmol/L)/5-HT2A Ki (nmol/L) (hERG channel)	IC50 (human 5-HT2A receptor [4]; aequorin luminescence) [nM]
O=C1c2cnc(OC3COC3)cc2CCN1CCN1CCN(c2nsc3ccccc23)CC1 [Example 111, 2-{2-[4-(1,2-Benzoisothiazol-3-yl)piperazin-1-yl]ethyl}-6-[(oxetan-3-yl)oxy]-3,4-dihydro-2,7-naphthyridin-1(2H)-one]	1105	530	4.58	51	0.91	1.9	17	1.9	0.254	1010	2052	984	–
Cc1ncc2c(n1)CCN(CCN1CCN(c3noc4ccccc34)CC1)C2=O [Example 179]	>35.3	>437.6	–	–	283	22.9	–	> 10	<0.05	> 10000	>35	>438	70.8

From patent publication US10745401B2, “Condensed lactam derivative” (Sumitomo Dainippon Pharma Co., Ltd., priority 2018, dated 2020)
